This is an account of results in EP1262195A1, “VASOACTIVE AGENTS” (Takeda Chemical Industries, Ltd., priority 2000, dated 2001).

Experiment [1] addresses T1, human GPR14-expressing CHO cell (Homo sapiens, UniProt Q9UKP6).
T1 construct: expressed in transfected cells
T1 sequence (Q9UKP6 1-389): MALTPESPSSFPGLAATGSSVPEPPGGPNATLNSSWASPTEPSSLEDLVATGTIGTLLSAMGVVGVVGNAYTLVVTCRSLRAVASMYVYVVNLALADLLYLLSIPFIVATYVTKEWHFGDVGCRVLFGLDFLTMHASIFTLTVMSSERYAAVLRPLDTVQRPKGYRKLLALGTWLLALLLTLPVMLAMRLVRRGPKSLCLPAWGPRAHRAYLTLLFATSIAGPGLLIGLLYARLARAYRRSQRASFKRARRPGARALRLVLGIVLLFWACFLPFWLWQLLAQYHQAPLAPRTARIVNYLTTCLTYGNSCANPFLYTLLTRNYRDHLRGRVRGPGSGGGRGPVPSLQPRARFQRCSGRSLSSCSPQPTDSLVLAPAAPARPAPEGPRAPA
Description: Change in intracellular calcium concentration in human GPR14-expressing CHO cells (FLIPR), antagonist activity assay. The format is cell-based. The note with it: 10µl of 10nM urotensin II added, Fluo3, FLIPR. The protocol: After the transformant E. coli DH5α/pcDNA3.1-hGPR14 prepared in Reference Example 2 was cultured, plasmid DNA for pcDNA3.1-hGPR1 was prepared by using Plasmid Midi Kit (Qiagen). The plasmid DNA was introduced into CHO dhfr cells using CellPhect Transfection Kit (Amersham Pharmacia Biotech) according to the protocol appended thereto. 10µg of DNA was co-precipitated with calcium phosphate to prepare a suspension which was then added to a 10cm petri dish on which 5 x 10^5 or 1 x 10^6 CHO dhfr^- cells had previously been inoculated 24 hours before then. Cells were cultured in a MEMα medium containing 10% fetal bovine serum for one day, subcultured, and cultured in a selection medium, a MEMα medium containing 0.4 mg/ml G418 (GIBCO BRL) and 10% dialysis fetal bovine serum. Colonies of transformed cells (CHO/hGPR14), which were human GPR14-expessing CHO cells growing in the selection medium, were selected.
GPR14-expressing CHO cells were inoculated on a 96-well plate at 1×10^4 cell/well, cultured for 48 hours, and then washed with 0.1ml of HBSS containing 20mM HEPES(pH7.4), 1% FCS and 1% penicillin-streptomycin (hereinafter referred to as "wash buffer"). Next, 100µl of another wash buffer containing 4µM Fluo3, 0.04% pluronic acid and 2.5mM probenicid (hereinafter referred to as "reaction buffer") was added thereto for reaction at 37°C for 1 hour. […]

The target of experiment [2] is T2, human GPR14 (Homo sapiens, UniProt Q9UKP6).
T2 construct: expressed in transfected cells
T2 sequence (Q9UKP6 1-389): T1 sequence (Q9UKP6 1-389)
Description: Inhibition of binding of [125I]-labeled human urotensin II to GPR14 using human GPR14-expressing CHO cell membrane fraction. Conditions: concentration showing 50% inhibition of human GPR14 binding activity, 1nM [125I]-labeled human urotensin II, 25°C for 3 hours, read-out: Inhibitory concentration. On the procedure:
To 1 x 10^8 CHO/GPR14 cells were added 10 ml of homogenate buffer (10 mM NaHCO3, 5 mM EDTA, 0.5 mM PMSF, 1µg/ml pepstatin, 4µg/ml E64, 20µg/ml leupeptin), and disrupted using Polytron (12,000 rpm, 1 minute). Cell debris solution was centrifuged at 1,000g for 15 minutes to obtain a supernatant. The supernatant was then […] (in Beckman type 30 rotor, 30,000 rpm, 1 hour), and the resultant precipitant was collected as human GPR14-expressing CHO cell fraction.
Isotope-labeled human urotensin II to be used in experiments for testing inhibition of binding was prepared as described below. 5 µg of human urotensin II (available from Peptide Institute, Inc.) was dissolved in 25µl of 0.4M sodium acetate (pH 5.6). […]
Human GPR14-expressing CHO cell fraction was diluted in a membrane diluting buffer (20mM phosphate buffer (pH7.3), 150mM NaCl, 5mM MgCl2,0.1% BSA, 0.05% CHAPS, 0.5mM PMSF, 0.1µg/ml Pepstatin, 20µg/ml Leupeptin, 4µg/ml E-64) to prepare a solution of cell membrane fraction (protein concentration:3µg/ml) for assay. […] Next, the filter was washed three times with membrane diluting buffer (0.2ml), added with 20µl of Microscinti 20 (Packard), and determined for radioactivity in Topcount (Packard). Specific-binding is calculated by subtracting non-specific binding from the total binding. […]

Turning to “1-benzyl-6-bromo-2,3-dihydro-1H-pyrrolo [2,3-b] quinoline-4-ylamine [Synthesis Example 1]”, the “urotensin II-induced increase in intracellular calcium concentration” value in experiment [1] is reported as “inhibited”.

For the compound `Nc1c2c(nc3ccc(Br)cc13)N(Cc1ccccc1)CC2` [compound 2], the “urotensin II-induced increase in intracellular calcium concentration” value in experiment [1] was “inhibited”. In experiment [2], the IC50 stood at 2.4 nM.

In the case of `Nc1c2c(nc3ccccc13)N(Cc1ccccc1)CC2` [compound 3], the IC50 in experiment [2] amounted to 33 nM.
